Experimental data from US8680153B2, “Method for correcting a lipid imbalance in a subject” (The Royal Institution for the Advancement of …, priority 2005, dated 2014).
Where “and” joins values, the source holds several entries; their conditions need not be identical. Identical values can stand only once. Entries after “also recorded” stand apart in the source; their conditions may differ.

Assays:
[1] = test system: ceramide levels; test: Ceramide levels by ELISA in lung and plasma of uninfected mice, fenretinide diet supplementation; type: in vivo; conditions: 5 mg/kg per day in diet, 28 days, 5 mg/kg/day
Description: Animals. Inbred C57BL/6-Cftr mice breeding pairs, heterozygous (HZ) at the Cftr locus, were used. All babies were genotyped between days 12 and 14 of their life. The animals were kept in cages with sterile corn bedding (Anderson, Bestmonro, La.) and maintained in ventilated racks (Lab Products). Mice were fed with either the NIH-31-modified irradiated mouse diet (Harlan Teklad, Indianapolis, Ind.) or a liquid diet starting at 14 days of age (Peptamen liquid diet; Nestle Canada, Brampton, ON). The liquid diet were freshly prepared every morning and provided in 50-mL centrifuge tubes (Fisher Scientific Ltd, Nepean, ON). Age- and gender-matched C57BL/6-Cftr+/+ (wild-type) mice, (female; n=10, male; n=31) and C57BL/6-Cftr−/− (Cftr-KO) mice (female; n=8, male; n=18) were murine pathogen-, Helicobacter- and parasite-free. They were housed (1-4 animals/cage), bred and maintained in a barrier facility unit under specific pathogen-free conditions. Experimental procedures with the mice were conducted in accordance with the Canadian Council on Animal Care guidelines and with the approval of the Animal Care Committee of the McGill University Health Center, Montreal, Quebec, Canada.
(§1) Fenretinide Diet Supplementation. Examples 2 to 6: fenretinide (Sigma-Aldrich, Oakville, ON) powder was resuspended in 95% ethanol and subsequently incorporated in the Peptamen liquid diet. It was protected from light and kept at 4° C. before being given to the mice (5 mg/kg per day per mouse). Mock-treated diets were prepared similarly by adding ethanol to the Peptamen diet but omitting the fenretinide supplementation. The diet was given every morning for 28 consecutive days with specific monitoring of the quantity consumed by the mice in each cage. Examples 7 to 12: fenretinide powder was kindly provided by Dr. Robert Smith (NIH; Bethesda, Md., USA). Fenretinide was resuspended in 95% ethanol to make a 2 μg/μL concentration. Approximately 40 μL of this preparation was incorporated into the Peptamen liquid diet (5 mg/kg per day per mouse). The prepared food containing fenretinide was then stored in the dark at 4° C. for no more than 3 hours prior to being administered to the mice. To ensure that the entire drug dose was consumed, the mice were given 10 mL of fenretinide-treated Peptamen, which represents ⅔ of the daily mouse food consumption, in the late afternoon. The remaining 5 mL of Peptamen (without fenretinide) was given the following morning. Mice were treated twice a week for 4 weeks. During the treatment period each mouse was kept in a separate cage (including WT mice) and was monitored to ensure that the entire amount of Peptamen containing the fenretinide or with out was consumed. The diet for the mock-treated control group was prepared and administered similarly to that described above, by adding the same volume of ethanol to the Peptamen diet but omitting the fenretinide supplementation.
Ceramide/Sphingolipids analysis. The concentration of ceramide in the (lung, liver, ileum, pancreas homogenates) and plasma from mice and humans were determined by ELISA^39;40 on separated lipids samples by thin layer chromatography, as described above. The phospholipids from the dry silica were resuspended in ethanol and used to coat Nunc plates specific for lipid binding. Plates were then washed, incubated with blocking buffer for 1 hr at 37° C. […]

[2] = test system: DHA and AA levels; test: Fatty acid analysis (DHA, AA, DHA/AA ratio) in lungs and plasma, 28 daily treatments; type: in vivo, mice
Protocol: as §1
(§2) Fatty Acid Analysis. Minced tissues isolated from mice were immersed in 1 mM BHA in chloroform and methanol (2:1 vol). For plasma samples (mouse and human), 100 μL of plasma was added to 1 mL of BHA. Lipids were then extracted from all samples according to standard methods (Folch, et al. (1957) J. Biol. Chem. 226:497-509). Identification of phospholipids was carried out by thin-layer chromatography extraction (Van Handel & Zilversmit (1957) J. Lab. Clin. Med. 50:152-157). Also, fractionated lipids were dried and resuspended in heptane:methanol:sulfuric acid (5:1:1) for free fatty acid extraction. Diazomethane was used to esterify the fatty acids released and the esters were identified by GC/MS (Hewlett Packard 5880A, WCOT capillary column (Supelco-10, 35 m×0.5 mm, 1 μm thick)) using commercial standards (Sigma-Aldrich).

[3] = test system: Cftr-KO mice; test: μCT of trabecular bone (femur), biweekly treatment for 4 weeks; type: in vivo
Protocol: as §1
μ-CT. Mice were sacrificed by CO2 and exsanguinated by cardiac puncture. Femurs, tibiae and vertebrae were extracted, stripped of soft tissue and fixed in 4% paraformaldehyde overnight. Micro Computed Tomography (μCT) was performed on the left femur after overnight fixation. The distal metaphysis was scanned with a Skyscan 1072 μCT instrument (Skyscan, Antwerp, Belgium). Image acquisition was performed at 100 kV and 98 μA, with a 0.9° rotation between frames. The two-dimensional images were used to generate three-dimensional reconstructions to obtain quantitative data using the 3D Creator software supplied with the instrument (ANT 3D Creator software, Skyscan, Antwerp, Belgium).
Histological analysis. Mice were given an intra-peritoneal injection of 30 mg/kg calcein at 7 days and 2 days prior to sacrifice to label actively mineralizing surfaces. After overnight fixation in 4% paraformaldehyde and rinsing in phosphate buffered saline (PBS), right femurs and tibiae were embedded in polymethylmethacrylate (MMA) or a mixture of 50% MMA and 50% glycolmethacrylate (GMA). Serial 4- to 6-μm sections were cut on a modified Leica RM 2155 rotary microtome (Leica Microsystems, Richmond Hill, Ontario, Canada). MMA-embedded tissues were stained with von Kossa and toluidine blue, while 4 μm MMA-GMA sections were stained with tartrate-resistant acidic phosphatase (TRAP) and alkaline phosphate (ALP) activity. Images were captured using a Leica DMR microscope (Leica Microsystems) equipped with a Retiga 1300 camera (Qimaging, Burnaby, British Columbia, Canada). The left femur and tibia and the lumbar vertebrae were decalcified with 4% EDTA for paraffin embedding after 14 days. Serial 5 μm sections were cut and stained with hematoxylin and esosin (H&E). Osteoblasts were defined as a single-nucleated, rod shaped cells and were identified along the surface of the trabecular lamellae. Osteoclasts were defined as multi-nucleated cells that are much larger then osteoblasts and display typical macrophage morphology.

[4] = test system: phospholipid-bound AA and DHA; test: Essential fatty acid profile in plasma, biweekly treatment for 4 weeks (8 treatments); type: in vivo, mice
Protocol: as §1, §2

[5] = fenretinide-treated Cftr-KO infected mice, lungs and plasma
[6] = wild-type mice, lungs and plasma
[7] = Cftr-KO mice, left femur, 8 doses over 4 weeks

CC1=C(/C=C/C(C)=C/C=C/C(C)=C/C(=O)Nc2ccc(O)cc2)C(C)(C)CCC1 [fenretinide, all-trans-N-(4-hydroxyphenyl) retinamide]
Ceramide levels, fold-increase (FEN-treated over CTRL), Lung ([1]; Cftr-KO mice): 7.0 fold and 7.0 (n = 3) fold
Ceramide levels, fold-increase (FEN-treated over CTRL), Plasma ([1]; Cftr-KO mice): 6.9 fold and 6.9 (n = 3) fold
Ceramide levels, fold-increase (FEN-treated over CTRL), Lung ([1]; HZ mice): 2.1 fold and 2.1 (n = 3) fold
Ceramide levels, fold-increase (FEN-treated over CTRL), Plasma ([1]; HZ mice): 2.7 fold and 2.7 (n = 3) fold
Ceramide levels, fold-increase (FEN-treated over CTRL), Lung ([1]; WT mice): 1.4 fold and 1.4 (n = 10) fold
Ceramide levels, fold-increase (FEN-treated over CTRL), Plasma ([1]; WT mice): 1.6 fold and 1.6 (n = 12) fold
AA levels in the ileum, liver and pancreas ([2]; Cftr-KO mice): decrease
Difference in median DHA/AA index ratio, wild-type/Cftr-KO ([2]; FEN-treated mice (untreated = 67-fold)): 7 fold
Lowering of the difference in median DHA/AA index ratio between wild-type and Cftr-KO ([2]; FEN-treated vs untreated): approximately 10 fold
AA levels, median vs infected Cftr-KO untreated controls [2, 5]: lower median
Concentration of DHA incorporated in phospholipids, median vs wild-type infected controls [2, 5]: lower median
Free DHA concentration, median vs wild-type infected controls ([2]; fenretinide-treated Cftr-KO infected mice, plasma): higher median
Free DHA (percentile), median vs wild-type untreated uninfected controls ([2]; fenretinide-treated infected wild-type mice, lungs and plasma): significant difference
DHA incorporated in phospholipids (percentile of total fatty acids), median vs untreated Cftr-KO ([2]; infected Cftr-KO mice, lungs and plasma): no difference
DHA/AA median index ratio vs untreated Cftr-KO ([2]; infected Cftr-KO mice, lungs and plasma (significant only in lungs)): increase
DHA incorporated in phospholipids (percentile of total fatty acids), median vs untreated wild-type [2, 6]: no difference
DHA/AA median index ratio vs untreated wild-type [2, 6]: no effect
Signs of osteoporosis in the trabecular bone (μCT) ([3]; Cftr-KO mice, biweekly treatment over four weeks (total 8 doses)): completely eliminate any signs of osteoporosis
Bone number (BN), increase vs Cftr-KO not treated [3, 7]: 2.4 fold
Bone volume (BV), increase vs Cftr-KO not treated [3, 7]: 3.1 fold
Bone volume/tissue volume (BV/TV), increase vs untreated Cftr-KO [3, 7]: 2.7 fold
Structural model index (SMI), treated WT vs treated Cftr-KO ([3]; left femur, fenretinide-treated mice): no significant (p=0.320) difference
Trabecular separation, treated WT vs treated Cftr-KO ([3]; left femur, fenretinide-treated mice, p=0.548): no longer a significant difference
Concentration of phospholipid-bound AA in plasma ([4]; Cftr-KO mice, 8 treatments, p<0.05): brought down significantly; also recorded: decreased significantly
Phospholipid-bound DHA, increase vs control Cftr-KO ([4]; Cftr-KO mice, plasma, 8 treatments): 2 fold
DHA:AA ratio, increase vs untreated Cftr-KO ([4]; Cftr-KO mice, plasma, 8 treatments, p<0.05): 2 fold
DHA bound in phospholipids, increase ([4]; WT and Cftr-KO mice, after 4 weeks of biweekly treatments (FIG. 14B legend)): 2 fold
